The record followed here is US4751302A, “Indazole derivatives” (priority 1982, dated 1988).

The subject of data set [1] is Carrageenin edema in rat's paw. In words: Carrageenin Edema Test in Rat's Paw (anti-inflammatory activity, Table 1). The note with it: 100 mg/kg oral; for inhibition in vivo at 100 mg/kg: hydrochloride, rat; for anti-inflammatory activity in comparison with compounds of the invention: Carrageenin edema. The data set is classed as in vivo. The procedure: An anti-inflammatory activity was measured by orally administering 100 mg/kg of a hydrochloride of the indazole derivative of this invention as set forth in Table 1 to an animal in accordance with the standard method of Carrageenin Edema Test in Rat's Paw described in C. A. Winter et al., Proc. Soc. Exp. Biol. Med., 111, 544 (1962).

The next data set can be described thus: in vivo. As to conditions: mouse, ip, intraperitoneal, hydrochloride, male ddy mice.

`CCN(CC)CCCn1nc(N)c2c(Cl)cccc21` [(1), 1-(3-Diethylaminopropyl)-3-amino-4-chloroindazole]: in data set [1], the inhibition in vivo (usually the percentage by which the read-out fell short of the control) at 100 mg/kg was determined as 58%. The median lethal dose (LD50) (in general, the dose expected to kill half of the subjects tested) in “in vivo” was 171 mg/kg.
The matching figures for `CCN(CC)CCCn1nc(N)c2cc(Cl)ccc21` [(2), 1-(3-Diethylaminopropyl)-3-amino-5-chloroindazole]: 55% and 192 mg/kg.
The matching figures for `CCN(CC)CCCn1nc(N)c2ccc(Cl)cc21` [(3), 1-(3-Diethylaminopropyl)-3-amino-6-chloroindazole]: 54% and 241 mg/kg.
The matching figures for `CCN(CC)CCCn1nc(N)c2cccc(Cl)c21` [(4), 1-(3-Diethylaminopropyl)-3-amino-7-chloroindazole]: 59% and 273 mg/kg.
For `CCN(CC)CCCn1nc(N)c2cc(N)ccc21` [(5), 1-(3-Diethylaminopropyl)-3,5-diaminoindazole], the inhibition in vivo at 100 mg/kg in data set [1] is 59%. In addition, the LD50 in the data set “in vivo” stood at 311 mg/kg.
For `CCN(CC)CCCn1nc(N)c2cc(OC)ccc21` [(6), 1-(3-Diethylaminopropyl)-3-amino-5-methoxyindazole], in data set [1], the inhibition in vivo at 100 mg/kg was 56%. For the same compound, in “in vivo”, the LD50 was 188 mg/kg.
On to `CCN(CC)CCCn1nc(N)c2cc(C)ccc21` [(7), 1-(3-Diethylaminopropyl)-3-amino-5-methylindazole], for which the inhibition in vivo at 100 mg/kg in data set [1] worked out at 58%. In the data set “in vivo”, this compound displayed an LD50 of 221 mg/kg.
Taken in the same sequence, the figures for `CCCCN(CCCC)CCCn1nc(N)c2cc(Cl)ccc21` [(8), 1-(3-Di-n-butylaminopropyl)-3-amino-5-chloroindazole] were 56% and 231 mg/kg.
Turning to `CC(CCn1nc(N)c2cc(Cl)ccc21)N(C)C` (stereo not shown) [(9), 1-(3-Dimethylaminobutyl)-3-amino-5-chloroindazole], in data set [1], 100 mg/kg produced 37% inhibition in vivo. Further, the 50% lethal dose (LD50) in “in vivo” is 113 mg/kg.
As to `CCN(CC)C(CCn1nc(N)c2cc(Cl)ccc21)CC(C)C` (stereo not shown) [(10), 1-(3-Diethylamino-5-methylhexyl)-3-amino-5-chloroindazole], in data set [1], the inhibition in vivo at 100 mg/kg worked out at 49%. The LD50 in the data set “in vivo” turned out to be 239 mg/kg.
In data set [1], `Nc1nn(CCCN2CCCCC2)c2ccc(Cl)cc12` [(11), 1-(3-Piperidinopropyl)-3-amino-5-chloroindazole] came in with an inhibition in vivo at 100 mg/kg of 54%. Also, the LD50 in the data set “in vivo” is 211 mg/kg.
As for `Nc1nn(CCCCCCN2CCCCC2)c2ccc(Cl)cc12` [(12), 1-(6-Piperidinohexyl)-3-amino-5-chloroindazole], the inhibition in vivo at 100 mg/kg in data set [1] worked out at 28%. In the data set “in vivo”, this compound yielded an LD50 of 337 mg/kg.
In data set [1], `CC(CCn1nc(N)c2cc(Cl)ccc21)N1CCCCC1` (stereo not shown) [(13), 1-(3-Piperidinobutyl)-3-amino-5-chloroindazole] displayed an inhibition in vivo at 100 mg/kg of 49%. Further, the LD50 in “in vivo” was determined as 310 mg/kg.
`CC(C)CC(CCn1nc(N)c2cc(Cl)ccc21)N1CCCCC1` (stereo not shown) [(14), 1-(3-Piperidino-5-methylhexyl)-3-amino-5-chloroindazole] displayed an inhibition in vivo at 100 mg/kg in data set [1] of 34%. The same compound showed a median lethal dose (LD50) in the data set “in vivo” of 301 mg/kg.
On to `CCCn1nc(N)c2ccccc21` [Compound C-1, 1-propyl-3-aminoindazole, reference compound], for which, in data set [1], the inhibition in vivo at 100 mg/kg amounted to 7% and the “anti-inflammatory activity in comparison with compounds of the invention” value was “little anti-inflammatory activity”.
Taken in the same sequence, the figures for `Nc1nn(CCc2ccccc2)c2ccccc12` [Compound C-2, 1-(2-phenylethyl)-3-aminoindazole, reference compound] were 7% and “little anti-inflammatory activity”.
`Nc1n[nH]c2c(N)cccc12` [Compound C-3, 3,7-diaminoindazole, reference compound]: in data set [1], the inhibition in vivo at 100 mg/kg came out at 6% and the “anti-inflammatory activity in comparison with compounds of the invention” value is on record as “little anti-inflammatory activity”.
